Test results as given in patent US10294230B2, “3,3-difluoropiperidine carbamate heterocyclic compounds as NR2B NMDA receptor antagonists” (Rugen Holdings (Cayman) Limited, priority 2015, dated 2019).

Tested on: KCl-induced cortical spreading depression
Experiment: Cortical Spreading Depression (CSD), aura phase of migraine model
Type: in vivo
Details: rats
Procedure: The cortical spreading depression model is utilized to investigate whether treatment with compounds of the present invention affect electrophysiological and hemodynamic events in a rat model of migraine.
Rats were anesthetized with 5% isoflurane (in 70% N2O and 30% O2; flow 300 ml/min) and placed in a stereotactic frame. […] The rectal temperature was maintained at 37.0±1.0° C. with a homeothermic blanket system. The skin was opened by a medial incision and retracted laterally. Three burr holes were drilled under saline cooling over the right hemisphere at the following coordinates (mm from bregma): (1) posterior 4.5, lateral, 2.0 (occipital cortex): KCl application site; (2) posterior 0.5, lateral 2.0 (parietal cortex): LDF recording site; (3) anterior 2, lateral 2 (frontal cortex): DC potential recording site. A laser-Doppler flow probe (Oxyflow, Oxford Optronics, UK) to monitor CBF and an invasive Ag/AgCl electrode for measuring direct current (DC) potential shifts were placed in the parietal and frontal cortex burr holes on the intact dura and in the cortex, respectively. The laser-Doppler flow probe was positioned in an area free of large pial and dural vessels to minimize a large-vessel contribution to the signal. For the DC-potential measurement, a reference electrode was fixed in the neck. Dura overlying the occipital cortex was gently removed and care was taken to avoid bleeding. After surgical preparation, the cortex was allowed to recover for 15 minutes under saline irrigation. A cotton ball (2 mm diameter) soaked with 1M KCl was placed on the pial surface and kept moist by placing 5 μl of KCl solution every 15 minutes. Test compound or vehicle was administered ten (10) minutes prior to CSD initiation. […] The number of KCl-induced CSDs was counted for 2 hours. The CBF and DC-potentials were monitored continuously starting from 5 minutes before KCl exposure.
Test compound E1-1.2 was administered as a mesylate salt (mpk based on molecular weight of the mesylate salt).
The data was collected in Windaq acquisition software (Dataq Instruments, USA) at 20 kHz. The raw data was analyzed in Clampfit program (Axon Instruments, USA). The signals were low pass filtered (cut off range 5-10000 Hz) that CSD episodes in DC and CBF could be confirmed. The following parameters were analyzed: i) the number, duration and amplitude of DC-potentials, and ii) the number and amplitude of CBF events.
Doses were given as milligram per kilogram (mpk). […] Bars represent mean±Standard Error of Mean (SEM), and differences were considered to be statistically significant at the P<0.05 level (n=8, * different from vehicle group). Statistical analysis was performed using StatsDirect statistical software. Differences between groups were analyzed by using 1-way ANOVA and Dunnett's post hoc test.

[1] = E1-1.2 at various doses, MK-801 1.25 mg/kg

Structure (SMILES): Cc1ccc(COC(=O)N2CC[C@H](CNc3nccn4cnnc34)C(F)(F)C2)cc1 [Compound E1-1.2, (+)-R-4-methylbenzyl 4-(([1,2,4]triazolo[4,3-a]pyrazin-8-ylamino)methyl)-3,3-difluoropiperidine-1-carboxylate]
- magnitude of CBF vs vehicle: unchanged
- number of DC potentials vs vehicle (3 mpk, 10 mpk and 30 mpk, mesylate salt): significantly decreased
- number of CBF events vs vehicle (E1-1.2 at 10 mg/kg, MK-801 at 1.25 mg/kg): decreased
- amplitude of DC potentials vs vehicle [1]: not statistically different
- duration of DC potentials vs vehicle [1]: not statistically different
